System: human pancreatic adenocarcinomas
Test: Growth of human pancreatic adenocarcinomas in vivo in athymic mice
Design: species or system NCr athymic nude mice
From the text: The animals used in the whole animal studies were NCr athymic nude mice. The NCr athymic outbred stock is the standard athymic model for National Cancer Institute (NCI) studies as well as many pharmaceutical and institutional oncology screening programs. The nude gene in homozygous (nu/nu) mice causes the lack of fur and an abnormal thymus. The deficiency in T cell function allows athymic mice to accept and grow xenografts as well as allograftsof normal and malignant tissues. Heterozygous (nu/+) animals carry the recessive nude gene on one chromosome only and therefore have a normal thymus triggered immune system. NCr-nu breeder stock was obtained from the NCI in 1993 after several years of random breeding. It was hysterectomy derived to achieve germfree status prior to its introduction into IBU colonies. This outbred stock has both BALB/c inbred and NIH(S) outbred stock in its genetic background. The homozygotes (nu/nu) used for the proposed investigations are albino animals with the model number of NCRNU-M from […] also being called Tac:Cr:(NCr)-Foxn1^nu: Six week old nude mice were utilized for these studies as they weight approximately 20 grams at this time period and the subcutaneous pumps used to infuse the respective four atrial natriuretic peptides were designed for 20 gram and larger mice. These mice accept malignant tissues. After one week of accliminization to their new surroundings, the mice have 1×10^6 of the adenocarcinoma cells placed under the skin on their backs. […] Tumor volume was calculated by the formula V (volume)=a×b^2/2 where “a” is the largest superficial diameter and b is the smallest superficial diameter. […] When the tumors first became palpable their volume was recorded and then an osmotic pump (Alzet Model 1002) containing either 0.9% saline (control infusion) or one of the respective peptide hormones in 0.9% saline was placed subcutaneously between the shoulder blades under anesthesia (pentobarbital 40 mg/kg body wt intraperitoneally). […]

Question: With “vessel dilator: a.a. 31-67 of the 126 a.a. ANP prohormone; peptide hormone from Peninsula Laboratories” as the substance, how does the side effects (139 ng/min/kg infusion in whole animals) read?
Answer: Its side effects is “no side effects”.

Question: And the “growth of the human adenocarcinomas” value (139 ng/min/kg of body weight, subcutaneous infusion pump, 14 days, n=14)?
Answer: Its value is “stopped the growth”.

Question: What about the “change in tumor volume during the two weeks of infusion” value (139 ng/min/kg, 14 days, saline-treated increased 100 mm^3) of the same substance?
Answer: Its value is “no increase in volume”.
